Experimental data taken from ChEMBL document CHEMBL1944529, “Structure-based design, synthesis and structure-activity relationships of dibenzosuberyl- and benzoate-substituted tropines as ligands for acetylcholine-binding protein” (Bioorg Med Chem Lett, 2012).

Each molecule was assayed against Acetylcholine-binding protein (Lymnaea stagnalis, UniProt P58154) (assay: Displacement of [3H]epibatidine from Lymnaea stagnalis acetylcholine binding protein expressed using baculoviral system after 1.5 hrs by scintillation counting).
Sequence of Acetylcholine-binding protein (P58154 whole entry): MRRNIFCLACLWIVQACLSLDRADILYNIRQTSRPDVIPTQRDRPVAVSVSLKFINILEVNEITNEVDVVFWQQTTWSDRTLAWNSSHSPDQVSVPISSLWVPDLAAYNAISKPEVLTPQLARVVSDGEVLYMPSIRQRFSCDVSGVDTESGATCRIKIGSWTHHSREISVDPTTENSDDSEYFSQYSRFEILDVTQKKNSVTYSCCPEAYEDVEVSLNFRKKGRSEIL
In the case of `c1ccc2c(c1)CCc1ccccc1C2O[C@H]1C[C@H]2CC[C@@H](C1)N2`, the Ki is reported as 1000 nM. Molecule `C[N+]1(CCc2ccccc2)[C@@H]2CC[C@H]1C[C@@H](OC(=O)c1ccccc1)C2` (stereo partly drawn) has a Ki of 31.6 nM. `C[N+]1(CC(O)c2ccccc2)[C@@H]2CC[C@H]1C[C@@H](OC(=O)c1ccccc1)C2` (stereo partly drawn) showed a Ki of 126 nM. `Oc1cccc(C(O)CN2[C@@H]3CC[C@H]2C[C@@H](OC2c4ccccc4CCc4ccccc42)C3)c1` (mixture of isomers) gave a Ki of 2000 nM. With `O=C(O[C@H]1C[C@H]2CC[C@@H](C1)N2CC(O)c1cc(O)cc(O)c1)c1ccccc1` (stereo partly drawn) the Ki was 398 nM. Work on `O=C(O[C@H]1C[C@H]2CC[C@@H](C1)N2CCc1cccc(O)c1)c1ccccc1` yielded a Ki of 100 nM. Work on `CN1[C@@H]2CC[C@H]1C[C@H](OC(=O)c1ccccc1)C2` yielded a Ki of 6310 nM. `O=C(O[C@H]1C[C@H]2CC[C@@H](C1)N2CC(O)c1ccccc1)c1ccccc1` (mixture of isomers) showed a Ki of 631 nM. Work on `CN1[C@@H]2CC[C@H]1C[C@@H](OC1c3ccccc3CCc3ccccc31)C2` [DEPTROPINE] yielded a Ki of 2000 nM. For `O=C(O[C@H]1C[C@H]2CC[C@@H](C1)N2C[C@@H](O)c1ccccc1)c1ccccc1`, the Ki was 1260 nM. Molecule `O=C(O[C@H]1C[C@H]2CC[C@@H](C1)N2CC(O)c1cccc(O)c1)c1ccccc1` (stereo partly drawn) has a Ki of 794 nM. With `C[N+]1(C[C@H](O)c2ccccc2)[C@@H]2CC[C@H]1C[C@@H](OC(=O)c1ccccc1)C2` (stereo partly drawn) the Ki was 126 nM. `C[N+]1(C)[C@@H]2CC[C@H]1C[C@@H](OC1c3ccccc3CCc3ccccc31)C2` gave a Ki of 316 nM. `C[N+]1(CCc2ccccc2)[C@@H]2CC[C@H]1C[C@@H](OC1c3ccccc3CCc3ccccc31)C2` (stereo partly drawn) showed a Ki of 39.8 nM. In the case of `c1ccc(CCN2[C@@H]3CC[C@H]2C[C@@H](OC2c4ccccc4CCc4ccccc42)C3)cc1`, the Ki is reported as 100 nM. With `O=C(O[C@@H]1C[C@H]2CC[C@@H](C1)N2)c1ccccc1` the Ki was 7940 nM. Work on `CN1[C@@H]2CC[C@H]1C[C@@H](OC(=O)c1ccccc1)C2` [BENZOYL TROPINE] yielded a Ki of 2000 nM. Molecule `OC(CN1[C@@H]2CC[C@H]1C[C@@H](OC1c3ccccc3CCc3ccccc31)C2)c1ccccc1` (mixture of isomers) has a Ki of 2000 nM. `c1ccc(CN2[C@@H]3CC[C@H]2C[C@@H](OC2c4ccccc4CCc4ccccc42)C3)cc1` showed a Ki of 251 nM. Molecule `O=C(O[C@@H]1C[C@H]2CC[C@@H](C1)N2CCc1ccccc1)c1ccccc1` has a Ki of 398 nM. Work on `O=C(O[C@@H]1C[C@H]2CC[C@@H](C1)N2CC(O)c1cc(O)cc(O)c1)c1ccccc1` (stereo partly drawn) yielded a Ki of 2000 nM. `O=C(O[C@H]1C[C@H]2CC[C@@H](C1)N2CCc1ccccc1)c1ccccc1` was tested, and the Ki was 79.4 nM. Molecule `O=C(O[C@H]1C[C@H]2CC[C@@H](C1)N2)c1ccccc1` has a Ki of 794 nM. `O=C(O[C@H]1C[C@H]2CC[C@@H](C1)N2C[C@H](O)c1ccccc1)c1ccccc1` was tested, and the Ki was 794 nM.

What follows are molecules tested against T1, Soluble acetylcholine receptor (Aplysia californica, UniProt Q8WSF8) (assay: Displacement of [3H]epibatidine from Aplysia californica acetylcholine binding protein expressed using baculoviral system after 1.5 hrs by scintillation counting).
T1 sequence (Q8WSF8 whole entry): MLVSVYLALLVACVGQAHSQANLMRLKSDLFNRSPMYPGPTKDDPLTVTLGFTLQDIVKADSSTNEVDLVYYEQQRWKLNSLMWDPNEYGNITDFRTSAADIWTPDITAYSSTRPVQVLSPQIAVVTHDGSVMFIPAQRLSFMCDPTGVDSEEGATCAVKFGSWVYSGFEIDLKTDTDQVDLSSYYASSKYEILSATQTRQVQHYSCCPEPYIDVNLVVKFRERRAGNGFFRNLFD
Work on `c1ccc2c(c1)CCc1ccccc1C2O[C@H]1C[C@H]2CC[C@@H](C1)N2` yielded a Ki of 10000 nM. `C[N+]1(CCc2ccccc2)[C@@H]2CC[C@H]1C[C@@H](OC(=O)c1ccccc1)C2` (stereo partly drawn) was tested, and the Ki was 158 nM. Molecule `C[N+]1(CC(O)c2ccccc2)[C@@H]2CC[C@H]1C[C@@H](OC(=O)c1ccccc1)C2` (stereo partly drawn) has a Ki of 2000 nM. `Oc1cccc(C(O)CN2[C@@H]3CC[C@H]2C[C@@H](OC2c4ccccc4CCc4ccccc42)C3)c1` (mixture of isomers) showed a Ki of 31600 nM. Work on `O=C(O[C@H]1C[C@H]2CC[C@@H](C1)N2CC(O)c1cc(O)cc(O)c1)c1ccccc1` (stereo partly drawn) yielded a Ki of 7940 nM. With `CN1[C@@H](CC(=O)c2ccccc2)CCC[C@H]1C[C@H](O)c1ccccc1` [LOBELINE] the Ki was 2.51 nM. Molecule `O=C(O[C@H]1C[C@H]2CC[C@@H](C1)N2CCc1cccc(O)c1)c1ccccc1` has a Ki of 200 nM. `CN1[C@@H]2CC[C@H]1C[C@H](OC(=O)c1ccccc1)C2` was tested, and the Ki was 15800 nM. With `O=C(O[C@H]1C[C@H]2CC[C@@H](C1)N2CC(O)c1ccccc1)c1ccccc1` (mixture of isomers) the Ki was 158 nM. For `CN1[C@@H]2CC[C@H]1C[C@@H](OC1c3ccccc3CCc3ccccc31)C2` [DEPTROPINE], the Ki was 6310 nM. `O=C(O[C@H]1C[C@H]2CC[C@@H](C1)N2C[C@@H](O)c1ccccc1)c1ccccc1` was tested, and the Ki was 794 nM. In the case of `O=C(O[C@H]1C[C@H]2CC[C@@H](C1)N2CC(O)c1cccc(O)c1)c1ccccc1` (stereo partly drawn), the Ki is reported as 631 nM. `C[N+]1(C[C@H](O)c2ccccc2)[C@@H]2CC[C@H]1C[C@@H](OC(=O)c1ccccc1)C2` (stereo partly drawn) gave a Ki of 794 nM. For `C[N+]1(C)[C@@H]2CC[C@H]1C[C@@H](OC1c3ccccc3CCc3ccccc31)C2`, the Ki was 1000 nM. Work on `C[N+]1(CCc2ccccc2)[C@@H]2CC[C@H]1C[C@@H](OC1c3ccccc3CCc3ccccc31)C2` (stereo partly drawn) yielded a Ki of 631 nM. `c1ccc(CCN2[C@@H]3CC[C@H]2C[C@@H](OC2c4ccccc4CCc4ccccc42)C3)cc1` showed a Ki of 10000 nM. `O=C(O[C@@H]1C[C@H]2CC[C@@H](C1)N2)c1ccccc1` was tested, and the Ki was 15800 nM. `CN1[C@@H]2CC[C@H]1C[C@@H](OC(=O)c1ccccc1)C2` [BENZOYL TROPINE] gave a Ki of 3980 nM. With `CN1CCC[C@H]1c1cccnc1` [NICOTINE] the Ki was 2510 nM. Molecule `OC(CN1[C@@H]2CC[C@H]1C[C@@H](OC1c3ccccc3CCc3ccccc31)C2)c1ccccc1` (mixture of isomers) has a Ki of 12600 nM. `c1ccc(CN2[C@@H]3CC[C@H]2C[C@@H](OC2c4ccccc4CCc4ccccc42)C3)cc1` was tested, and the Ki was 10000 nM. In the case of `O=C(O[C@@H]1C[C@H]2CC[C@@H](C1)N2CCc1ccccc1)c1ccccc1`, the Ki is reported as 1000 nM. Molecule `O=C(O[C@@H]1C[C@H]2CC[C@@H](C1)N2CC(O)c1cc(O)cc(O)c1)c1ccccc1` (stereo partly drawn) has a Ki of 20000 nM. Molecule `O=C(O[C@H]1C[C@H]2CC[C@@H](C1)N2CCc1ccccc1)c1ccccc1` has a Ki of 31.6 nM. With `O=C(O[C@H]1C[C@H]2CC[C@@H](C1)N2)c1ccccc1` the Ki was 5010 nM. `O=C(O[C@H]1C[C@H]2CC[C@@H](C1)N2C[C@H](O)c1ccccc1)c1ccccc1` gave a Ki of 100 nM.

Each molecule was assayed against Neuronal acetylcholine receptor subunit alpha-7 (Homo sapiens, UniProt P36544) (assay: Displacement of [3H]MLA from nAChR alpha7 receptor in human SH-SY5Y cells by scintillation counting).
Sequence of Neuronal acetylcholine receptor subunit alpha-7 (P36544 whole entry): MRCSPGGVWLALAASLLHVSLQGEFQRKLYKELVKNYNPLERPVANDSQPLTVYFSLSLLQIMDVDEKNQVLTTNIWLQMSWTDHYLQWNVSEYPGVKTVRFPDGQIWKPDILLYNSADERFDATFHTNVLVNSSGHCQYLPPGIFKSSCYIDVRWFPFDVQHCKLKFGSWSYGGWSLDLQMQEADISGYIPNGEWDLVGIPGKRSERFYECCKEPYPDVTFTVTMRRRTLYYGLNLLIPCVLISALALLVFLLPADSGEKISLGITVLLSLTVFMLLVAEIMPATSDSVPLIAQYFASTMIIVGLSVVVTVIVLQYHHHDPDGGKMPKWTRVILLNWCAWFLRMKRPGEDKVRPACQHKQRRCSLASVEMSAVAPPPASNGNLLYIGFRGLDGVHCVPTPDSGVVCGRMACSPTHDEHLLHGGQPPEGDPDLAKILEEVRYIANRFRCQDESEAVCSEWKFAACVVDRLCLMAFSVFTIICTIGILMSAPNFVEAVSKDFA
Format: cell-based
`C[N+]1(CCc2ccccc2)[C@@H]2CC[C@H]1C[C@@H](OC(=O)c1ccccc1)C2` (stereo partly drawn) gave a Ki of 6.31 µM. For `C[N+]1(CC(O)c2ccccc2)[C@@H]2CC[C@H]1C[C@@H](OC(=O)c1ccccc1)C2` (stereo partly drawn), the Ki was 10 µM. With `Oc1cccc(C(O)CN2[C@@H]3CC[C@H]2C[C@@H](OC2c4ccccc4CCc4ccccc42)C3)c1` (mixture of isomers) the Ki was 39.8 µM. Molecule `O=C(O[C@H]1C[C@H]2CC[C@@H](C1)N2CC(O)c1cc(O)cc(O)c1)c1ccccc1` (stereo partly drawn) has a Ki of 15.8 µM. `CN1[C@@H](CC(=O)c2ccccc2)CCC[C@H]1C[C@H](O)c1ccccc1` [LOBELINE] gave a Ki of 7.94 µM. `O=C(O[C@H]1C[C@H]2CC[C@@H](C1)N2CCc1cccc(O)c1)c1ccccc1` showed a Ki of 12.6 µM. In the case of `O=C(O[C@H]1C[C@H]2CC[C@@H](C1)N2CC(O)c1ccccc1)c1ccccc1` (mixture of isomers), the Ki is reported as 12.6 µM. `O=C(O[C@H]1C[C@H]2CC[C@@H](C1)N2CC(O)c1cccc(O)c1)c1ccccc1` (stereo partly drawn) gave a Ki of 25.1 µM. With `C[N+]1(C)[C@@H]2CC[C@H]1C[C@@H](OC1c3ccccc3CCc3ccccc31)C2` the Ki was 1 µM. In the case of `C[N+]1(CCc2ccccc2)[C@@H]2CC[C@H]1C[C@@H](OC1c3ccccc3CCc3ccccc31)C2` (stereo partly drawn), the Ki is reported as 1.58 µM. In the case of `c1ccc(CCN2[C@@H]3CC[C@H]2C[C@@H](OC2c4ccccc4CCc4ccccc42)C3)cc1`, the Ki is reported as 12.6 µM. `CN1[C@@H]2CC[C@H]1C[C@@H](OC(=O)c1ccccc1)C2` [BENZOYL TROPINE] showed a Ki of 15.8 µM. With `OC(CN1[C@@H]2CC[C@H]1C[C@@H](OC1c3ccccc3CCc3ccccc31)C2)c1ccccc1` (mixture of isomers) the Ki was 20 µM. `O=C(O[C@@H]1C[C@H]2CC[C@@H](C1)N2CCc1ccccc1)c1ccccc1` gave a Ki of 5.01 µM. With `O=C(O[C@@H]1C[C@H]2CC[C@@H](C1)N2CC(O)c1cc(O)cc(O)c1)c1ccccc1` (stereo partly drawn) the Ki was 12.6 µM. Work on `O=C(O[C@H]1C[C@H]2CC[C@@H](C1)N2CCc1ccccc1)c1ccccc1` yielded a Ki of 7.94 µM. Molecule `O=C(O[C@H]1C[C@H]2CC[C@@H](C1)N2)c1ccccc1` has a Ki of 3.16 µM.

What follows are molecules tested against Neuronal acetylcholine receptor; alpha4/beta2 (Homo sapiens, UniProt P17787+P43681) (assay: Displacement of [3H]epibatidine from human nAChR alpha4beta2 receptor expressed in human HEK293T cells by scintillation counting).
Sequence of Neuronal acetylcholine receptor; alpha4/beta2 (P17787 whole entry): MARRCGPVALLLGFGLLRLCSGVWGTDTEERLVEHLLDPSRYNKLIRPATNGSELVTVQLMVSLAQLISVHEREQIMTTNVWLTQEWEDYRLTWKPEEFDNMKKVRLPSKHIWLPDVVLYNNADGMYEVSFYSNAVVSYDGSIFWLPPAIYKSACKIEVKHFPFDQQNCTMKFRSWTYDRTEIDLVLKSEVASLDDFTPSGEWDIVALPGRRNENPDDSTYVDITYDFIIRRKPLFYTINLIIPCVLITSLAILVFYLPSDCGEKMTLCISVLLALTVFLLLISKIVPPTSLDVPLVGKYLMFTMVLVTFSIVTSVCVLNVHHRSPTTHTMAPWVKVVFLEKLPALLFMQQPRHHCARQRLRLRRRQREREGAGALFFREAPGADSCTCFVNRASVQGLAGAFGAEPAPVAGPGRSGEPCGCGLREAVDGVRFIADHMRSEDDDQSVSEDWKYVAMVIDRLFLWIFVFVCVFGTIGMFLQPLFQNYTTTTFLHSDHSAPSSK
Sequence of Neuronal acetylcholine receptor; alpha4/beta2 (P43681 whole entry): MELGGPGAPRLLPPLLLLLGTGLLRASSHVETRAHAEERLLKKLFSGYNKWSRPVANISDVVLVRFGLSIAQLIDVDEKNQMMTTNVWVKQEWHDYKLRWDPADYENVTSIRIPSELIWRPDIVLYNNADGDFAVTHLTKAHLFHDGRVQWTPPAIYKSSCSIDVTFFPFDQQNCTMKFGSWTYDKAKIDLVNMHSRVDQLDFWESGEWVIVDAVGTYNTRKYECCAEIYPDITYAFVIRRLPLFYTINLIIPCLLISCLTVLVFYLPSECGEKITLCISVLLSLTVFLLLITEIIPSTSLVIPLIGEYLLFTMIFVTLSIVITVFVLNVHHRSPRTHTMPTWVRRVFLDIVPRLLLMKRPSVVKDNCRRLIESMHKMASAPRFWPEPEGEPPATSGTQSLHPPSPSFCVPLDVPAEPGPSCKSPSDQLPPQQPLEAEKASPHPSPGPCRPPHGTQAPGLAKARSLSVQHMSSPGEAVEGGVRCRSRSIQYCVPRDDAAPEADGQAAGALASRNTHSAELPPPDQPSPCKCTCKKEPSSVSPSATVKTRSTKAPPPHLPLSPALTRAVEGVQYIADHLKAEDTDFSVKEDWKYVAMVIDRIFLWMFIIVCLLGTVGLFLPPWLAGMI
Format: cell-based, HEK-293T
`C[N+]1(CCc2ccccc2)[C@@H]2CC[C@H]1C[C@@H](OC(=O)c1ccccc1)C2` (stereo partly drawn) was tested, and the Ki was greater than 31.6 µM. For `C[N+]1(CC(O)c2ccccc2)[C@@H]2CC[C@H]1C[C@@H](OC(=O)c1ccccc1)C2` (stereo partly drawn), the Ki was greater than 31.6 µM. With `Oc1cccc(C(O)CN2[C@@H]3CC[C@H]2C[C@@H](OC2c4ccccc4CCc4ccccc42)C3)c1` (mixture of isomers) the Ki was greater than 31.6 µM. Work on `O=C(O[C@H]1C[C@H]2CC[C@@H](C1)N2CC(O)c1cc(O)cc(O)c1)c1ccccc1` (stereo partly drawn) yielded a Ki greater than 31.6 µM. `O=C(O[C@H]1C[C@H]2CC[C@@H](C1)N2CCc1cccc(O)c1)c1ccccc1` showed a Ki greater than 31.6 µM. `O=C(O[C@H]1C[C@H]2CC[C@@H](C1)N2CC(O)c1ccccc1)c1ccccc1` (mixture of isomers) showed a Ki greater than 31.6 µM. Work on `O=C(O[C@H]1C[C@H]2CC[C@@H](C1)N2CC(O)c1cccc(O)c1)c1ccccc1` (stereo partly drawn) yielded a Ki greater than 31.6 µM. `C[N+]1(C)[C@@H]2CC[C@H]1C[C@@H](OC1c3ccccc3CCc3ccccc31)C2` was tested, and the Ki was greater than 31.6 µM. For `C[N+]1(CCc2ccccc2)[C@@H]2CC[C@H]1C[C@@H](OC1c3ccccc3CCc3ccccc31)C2` (stereo partly drawn), the Ki was greater than 31.6 µM. `c1ccc(CCN2[C@@H]3CC[C@H]2C[C@@H](OC2c4ccccc4CCc4ccccc42)C3)cc1` was tested, and the Ki was greater than 31.6 µM. For `CN1[C@@H]2CC[C@H]1C[C@@H](OC(=O)c1ccccc1)C2` [BENZOYL TROPINE], the Ki was greater than 31.6 µM. Molecule `OC(CN1[C@@H]2CC[C@H]1C[C@@H](OC1c3ccccc3CCc3ccccc31)C2)c1ccccc1` (mixture of isomers) has a Ki greater than 31.6 µM. For `O=C(O[C@@H]1C[C@H]2CC[C@@H](C1)N2CCc1ccccc1)c1ccccc1`, the Ki was greater than 31.6 µM. `O=C(O[C@@H]1C[C@H]2CC[C@@H](C1)N2CC(O)c1cc(O)cc(O)c1)c1ccccc1` (stereo partly drawn) gave a Ki greater than 31.6 µM. `O=C(O[C@H]1C[C@H]2CC[C@@H](C1)N2CCc1ccccc1)c1ccccc1` gave a Ki greater than 31.6 µM. `O=C(O[C@H]1C[C@H]2CC[C@@H](C1)N2)c1ccccc1` was tested, and the Ki was greater than 31.6 µM.
